What was measured:
[1] = target: Cyclin-dependent kinase 4 (Homo sapiens, UniProt P11802)
Description: Inhibitory activity against human CDK4 (Cyclin dependent kinase 4)

[2] = target: Cyclin-dependent kinase 2 (Homo sapiens, UniProt P24941)

Sequence of Cyclin-dependent kinase 4 (P11802 whole entry): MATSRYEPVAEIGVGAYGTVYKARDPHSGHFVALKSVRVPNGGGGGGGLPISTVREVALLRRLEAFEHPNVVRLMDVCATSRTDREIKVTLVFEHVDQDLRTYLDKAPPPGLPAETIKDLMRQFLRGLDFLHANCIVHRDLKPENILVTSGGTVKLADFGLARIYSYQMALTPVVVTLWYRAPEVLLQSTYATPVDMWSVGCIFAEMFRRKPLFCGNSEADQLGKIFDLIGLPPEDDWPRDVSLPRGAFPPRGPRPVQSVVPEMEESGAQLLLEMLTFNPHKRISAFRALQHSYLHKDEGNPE

Row | SMILES | Ki [1] [µM] | Ki [2] [µM]
1 | Cc1nc(C)c(-c2ccnc(Nc3ccccc3)n2)s1 | 2.6 | 0.08
2 | CCNc1nc(C)c(-c2ccnc(Nc3cccc(O)c3)n2)s1 | > 20 | > 10
3 | Cc1nc(C)c(-c2ccnc(Nc3ccccc3F)n2)s1 | 1.2 | 1.2
4 | Cc1nc(C)c(-c2ccnc(N(C)c3cccc([N+](=O)[O-])c3)n2)s1 | > 20 | > 20
5 | Cc1nc(-c2ccccn2)sc1-c1ccnc(Nc2cccc([N+](=O)[O-])c2)n1 | > 20 | > 20
6 | Cc1nc(N)sc1-c1ccnc(Nc2ccc(O)cc2)n1 | 0.32 | 0.03
7 | Cc1nc(C)c(-c2ccnc(Nc3cccc(F)c3)n2)s1 | 0.9 | 0.1
8 | Cc1nc(C)c(-c2ccnc(N(C)C)n2)s1 | > 20 | > 20
9 | Cc1nc(C)c(-c2ccnc(Nc3ccccc3Cl)n2)s1 | > 20 | > 20
10 | CNc1nc(C)c(-c2ccnc(Nc3cccc(O)c3)n2)s1 | 0.37 | 0.11
11 | Cc1nc(C)c(-c2ccnc(Nc3ccc(O)cc3)n2)s1 | 0.32 | 0.14
12 | Cc1nc(C)c(-c2ccnc(Nc3cccc(Cl)c3)n2)s1 | 9.4 | 0.67
13 | Cc1nc(C)c(-c2ccnc(Nc3ccc(Cl)cc3)n2)s1 | > 20 | 2.5
14 | Cc1nc(N(C)C)sc1-c1ccnc(Nc2cccc([N+](=O)[O-])c2)n1 | 5.3 | 0.06
15 | CNc1nc(C)c(-c2ccnc(Nc3cccc([N+](=O)[O-])c3)n2)s1 | 1.6 | 0.8
16 | CNc1nccc(-c2sc(C)nc2C)n1 | > 20 | > 20
17 | Cc1nc(C)c(-c2ccnc(Nc3cccc(C#N)c3)n2)s1 | 0.48 | 0.3
18 | Cc1nc(C)c(-c2ccnc(Nc3cccc(C(F)(F)F)c3)n2)s1 | > 20 | > 20
19 | Cc1nc(C)c(-c2ccnc(N)n2)s1 | 16 | 
20 | Cc1nc(C)c(-c2ccnc(Nc3cccc(N)c3)n2)s1 | 10.6 | 0.4
21 | Cc1nc(C)c(-c2ccnc(Nc3ccc([N+](=O)[O-])cc3)n2)s1 | > 20 | 4.1
22 | Cc1nc(C)c(-c2ccnc(Nc3ccccc3C(F)(F)F)n2)s1 | > 20 | > 20

Source: ChEMBL document CHEMBL1149116, “2-Anilino-4-(thiazol-5-yl)pyrimidine CDK inhibitors: synthesis, SAR analysis, X-ray crystallography, and biological activity” (J Med Chem, 2004)
